# Values quoted from earlier work, collected in patent US20070026026A1 (priority 2005, published 2007).
# Tests used:
# [1] = room temperature; cited from earlier work
# cytochrome P450 2C9 = cytochrome P450 2C9 (Homo sapiens, UniProt P11712); conditions: in vitro studies; cited from earlier work
# cytochrome P450 3A4 = cytochrome P450 3A4 (Homo sapiens, UniProt P08684); conditions: in vitro studies; cited from earlier work
# [2] = cited from earlier work
# AT1 receptor = target: T1, AT1 receptor (Homo sapiens, UniProt P30556); conditions: cited from earlier work
# T1 sequence (P30556 1-359): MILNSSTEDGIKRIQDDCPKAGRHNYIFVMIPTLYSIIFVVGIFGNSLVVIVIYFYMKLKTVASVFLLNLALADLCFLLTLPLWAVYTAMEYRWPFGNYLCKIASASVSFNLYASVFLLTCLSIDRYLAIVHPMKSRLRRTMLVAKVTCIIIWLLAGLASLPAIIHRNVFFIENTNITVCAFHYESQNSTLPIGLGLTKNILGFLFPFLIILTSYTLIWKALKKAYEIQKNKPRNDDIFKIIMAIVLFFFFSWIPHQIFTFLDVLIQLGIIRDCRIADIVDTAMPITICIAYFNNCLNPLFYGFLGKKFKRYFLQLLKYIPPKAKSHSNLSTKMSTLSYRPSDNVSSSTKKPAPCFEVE
# cytochrome P450 2C9, sequence (P11712 whole entry): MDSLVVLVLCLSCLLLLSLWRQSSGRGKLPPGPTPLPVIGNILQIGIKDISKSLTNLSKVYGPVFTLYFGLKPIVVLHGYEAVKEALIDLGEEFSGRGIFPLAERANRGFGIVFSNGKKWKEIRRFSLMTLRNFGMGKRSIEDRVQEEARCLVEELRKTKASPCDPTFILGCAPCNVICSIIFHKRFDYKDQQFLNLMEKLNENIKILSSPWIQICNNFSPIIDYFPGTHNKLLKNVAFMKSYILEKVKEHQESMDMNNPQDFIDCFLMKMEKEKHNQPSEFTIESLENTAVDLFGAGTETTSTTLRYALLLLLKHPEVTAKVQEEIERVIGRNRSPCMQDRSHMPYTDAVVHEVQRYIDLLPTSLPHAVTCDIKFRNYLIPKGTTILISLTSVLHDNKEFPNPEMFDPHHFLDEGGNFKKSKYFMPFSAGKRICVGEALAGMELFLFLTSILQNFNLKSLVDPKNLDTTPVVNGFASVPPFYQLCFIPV
# cytochrome P450 3A4, sequence (P08684 whole entry): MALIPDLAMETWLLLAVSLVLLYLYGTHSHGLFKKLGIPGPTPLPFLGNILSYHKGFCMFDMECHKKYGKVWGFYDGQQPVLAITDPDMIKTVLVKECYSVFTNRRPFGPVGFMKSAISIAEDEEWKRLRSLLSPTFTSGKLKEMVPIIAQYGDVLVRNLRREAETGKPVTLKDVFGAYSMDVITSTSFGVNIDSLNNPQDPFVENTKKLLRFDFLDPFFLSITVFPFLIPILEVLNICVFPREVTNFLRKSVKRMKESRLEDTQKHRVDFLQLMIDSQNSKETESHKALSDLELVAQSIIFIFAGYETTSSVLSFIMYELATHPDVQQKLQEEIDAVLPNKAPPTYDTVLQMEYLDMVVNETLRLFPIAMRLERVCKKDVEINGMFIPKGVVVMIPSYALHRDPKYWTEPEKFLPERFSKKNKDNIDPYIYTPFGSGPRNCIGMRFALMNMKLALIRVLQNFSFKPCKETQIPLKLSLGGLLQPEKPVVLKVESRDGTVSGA
Compound,thermodynamic stability of the polymorph [1],involvement in the biotransformation of losartan to its metabolites (cytochrome P450 2C9),involvement in the biotransformation of losartan to its metabolites (cytochrome P450 3A4),terminal half-life ([2]; in vivo),maximum plasma concentrations of losartan and its active metabolite compared ([2]; oral administration),systemic bioavailability ([2]; oral administration),time to mean peak concentrations ([2]; oral administration),"pharmacokinetics, dose dependence ([2]; oral losartan doses up to 200 mg)",effect of a meal on AUC (decrease) ([2]; with a meal),effect of a meal on Cmax ([2]; with a meal),effect of a meal on absorption ([2]; with a meal),partial agonist activity at the AT1 receptor (AT1 receptor)
CCCCc1nc(Cl)c(CO)n1Cc1ccc(-c2ccccc2-c2nnn[n-]2)cc1.[K+] [Form I],more thermodynamically stable polymorph,–,–,–,–,–,–,–,–,–,–,–
CCCCc1nc(Cl)c(CO)n1Cc1ccc(-c2ccccc2-c2nn[nH]n2)cc1 [losartan],–,involved,involved,about 2 hours,approximately equal,approximately 33%,1 h,linear,about 10%,decreases,slows absorption,do not exhibit any partial agonist activity
